# Literature values in US20050096391A1 (priority 2003, published 2005).
# What was measured:
# [1] = pH of 7.0
# [2] = oral
# [3] = tested on: low-density lipoprotein (LDL)-cholesterol; conditions: compared with atorvastatin, simvastatin, pravastatin
solubility in ethanol (ethanol),solubility in methanol (methanol),solubility in water (water),partition coefficient (octanol/water) [1],bioavailability [2],SMILES,reductions in low-density lipoprotein (LDL)-cholesterol [3]
slightly soluble,sparingly soluble,sparingly soluble,–,–,CC(C)c1nc(N(C)S(C)(=O)=O)nc(-c2ccc(F)cc2)c1/C=C/[C@@H](O)C[C@@H](O)CC(=O)[O-].CC(C)c1nc(N(C)S(C)(=O)=O)nc(-c2ccc(F)cc2)c1/C=C/[C@@H](O)C[C@@H](O)CC(=O)[O-].[Ca+2] [Rosuvastatin calcium],–
–,–,–,0.13,approximately 20%,"CC(C)c1nc(N(C)S(C)(=O)=O)nc(-c2ccc(F)cc2)c1/C=C/[C@@H](O)C[C@@H](O)CC(=O)O [Rosuvastatin, (E)-7-[4-(4-fluorophenyl)-6 isopropyl-2-[methyl (methyl-sulfonyl)amino]pyrimidin-5-yl](3R,5S)-3,5-dihydroxyhept-6-enoic acid]","greater reductions in low-density lipoprotein (LDL)-cholesterol than atorvastatin, simvastatin, and pravastatin"
